Measured values from US10525110B2, “Methods for inducing partial apoptosis using caspase polypeptides” (Bellicum Pharmaceuticals, Inc., priority 2013, dated 2020).

Experiments:
Format in all cases: cell-based, human
[1] = tested on: iCasp9M.IRES.IL-12-transduced cells; test: IL-12 ELISA of supernatant of iCasp9M.I.IL-12-transduced EBV-CTLs; conditions: 10 nM CID; detection limit 8 pg/mL
Procedure: The concentration of interferon-γ (IFN-γ), IL-2, IL-4, IL-5, IL-10, and tumor necrosis factor-α (TNFα) in CTL culture supernatants was measured using the Human Th1/Th2 cytokine cytometric Bead Array (BD Pharmingen) and the concentration of IL-12 in the culture supernatants was measured by enzyme-linked immunosorbent assay (ELISA; R&D Systems, Minneapolis, Minn.) according to the instructions of the manufacturer.
To determine whether iCasp9M could effectively destroy cells genetically modified to express an active transgene product, the ability of iCasp9M to eliminate EBV-CTLs stably expressing IL-12 was measured. While IL-12 was undetectable in the supernatant of nontransduced and iCasp9M.IRES.GFP-transduced CTLs, the supernatant of iCasp9M.IRES.IL-12-transduced cells contained 324 pg/mL to 762 pg/mL IL-12. After administration of 10 nM CID, however, the IL-12 in the supernatant fell to undetectable levels (<8 pg/mL). Thus, even without prior sorting for high transgene expressing cells, activation of iCasp9M is sufficient to completely eliminate all T cells producing biologically relevant levels of IL-12 (FIG. 6). The function of iCasp9M when coexpressed with IL-12 is graphically represented by bar graphs in FIG. 6. […] Three days after a second antigenic stimulation, the levels of IL-12 in the culture supernatant were measured by IL-12 ELISA (detection limit of this assay is 8 pg/mL). […]

[2] = tested on: F-Casp9M.I.GFPhigh-transduced T cells; test: Annexin-V/7-AAD staining of GFPhigh-selected iCasp9M-transduced T cells after CID
[3] = tested on: iCasp9M-transduced EBV-CTLs; test: CID-induced elimination of GFP+ iCasp9M-transduced EBV-CTLs (flow cytometry for GFP)
non-transduced cells = test: Viability of non-transduced cells with AP20187
Procedure: Suicide gene functionality was assessed by adding a small molecule synthetic homodimerizer, AP20187 (Ariad Pharmaceuticals; Cambridge, Mass.), at 10 nM final concentration the day following CD19 immunomagnetic selection. Cells were stained with annexin V and 7-amino-actinomycin (7-AAD)(BD Pharmingen) at 24 hours and analyzed by flow cytometry. Cells negative for both annexin V and 7-AAD were considered viable, cells that were annexin V positive were apoptotic, and cells that were both annexin V and 7-AAD positive were necrotic. The percentage killing induced by dimerization was corrected for baseline viability as follows: Percentage killing=100%−(% Viability in AP20187-treated cells÷% Viability in non-treated cells).
The day following immunomagnetic selection, 10 nM of the chemical inducer of dimerization, AP20187, was added to induce apoptosis, which appeared within 24 hours. […] Killing efficiency after correction for baseline viability was about 92.9%±3.8%. Large-scale CD19 selection produced cells that were killed with similar efficiency as small-scale selection: mean viability with and without AP20187, and percentage killing, in large and small scale were about 3.9%, about 84.0%, about 95.4% (n=3) and about 6.6%, about 79.3%, about 91.4% (n=5) respectively. […]

[4] = tested on: EBV-specific and CMV-specific T cells; test: Pentamer analysis of virus-specific T cells after AP20187 treatment of allostimulated cells; conditions: 10 nM after 4 days reactivation with allogeneic PBMC
[5] = representative example of 3 separate experiments

CC[C@H](C(=O)N1CCCC[C@H]1C(=O)O[C@H](CCc1ccc(OC)c(OC)c1)c1cccc(OCC(=O)NCC(CNC(=O)COc2cccc([C@@H](CCc3ccc(OC)c(OC)c3)OC(=O)[C@@H]3CCCCN3C(=O)[C@@H](CC)c3cc(OC)c(OC)c(OC)c3)c2)CN(C)C)c1)c1cc(OC)c(OC)c(OC)c1 [AP20187]
IL-12 in the supernatant after CID [1]: < 8 pg/mL | time to apoptotic characteristics (cell shrinkage and fragmentation) after CID administration ([2]; GFPhigh-selected cells): ≤ 14 h | apoptotic phenotype (annexin V+, 7-AAD−) [2, 5]: 64% | necrotic phenotype (annexin V+, 7-AAD+) [2, 5]: 32% | reduction in mean fluorescence intensity of GFP after CID ([3]; CTLs that survived CID treatment): 70% | further elimination of the surviving GFP+ T cells ([3]; antigenic stimulation followed by a second 10-nM dose of CID): No further elimination | CID sufficient to obtain the maximal deletion effect ([3]; titration, F-Casp9M.I.GFPhigh, survival of GFP+ cells on day 7): 1 nM | GFP+ cells eliminated after a single 10-nM dose of CID ([3]; unselected iCasp9M-transduced CTLs, 5 different donors): 91.3% | toxicity to non-transduced cells (non-transduced cells): non-toxic | viability of non-transduced cells with AP20187 (non-transduced cells; n=6): about 86%±9 | effect on virus-specific T cells [4]: spares (and thereby enriches) viral reactive subpopulations
